Results published in ChEMBL document CHEMBL4420076, “Amylin and calcitonin receptor agonist” (2017).
Numbered stars: 1 amine (or outer) side, 2 acyl side, 3 side chain; on linkers, the order of the positions; unused ones are H or OH. Peptide text beside a SMILES is read from it. * marks the point of attachment. C20 diacid = O=C(O)CCCCCCCCCCCCCCCCCCC(=O)*; C18 diacid = O=C(O)CCCCCCCCCCCCCCCCC(=O)*; γGlu = O=C(O)[C@H](CCC(=O)[*:2])N[*:1]

Columns and labels:
[1] = target: T1, Amylin receptor AMY3; CALCR/RAMP3 (Homo sapiens, UniProt O60896+P30988); assay: Displacement of [125I]-labeled rat amylin from human amylin receptor expressed in BHK tkts13 whole cells co-expressing RAMP3 incubated for 60 mins by scintillation proximity assay; format: cell-based
T1 sequence (P30988 whole entry): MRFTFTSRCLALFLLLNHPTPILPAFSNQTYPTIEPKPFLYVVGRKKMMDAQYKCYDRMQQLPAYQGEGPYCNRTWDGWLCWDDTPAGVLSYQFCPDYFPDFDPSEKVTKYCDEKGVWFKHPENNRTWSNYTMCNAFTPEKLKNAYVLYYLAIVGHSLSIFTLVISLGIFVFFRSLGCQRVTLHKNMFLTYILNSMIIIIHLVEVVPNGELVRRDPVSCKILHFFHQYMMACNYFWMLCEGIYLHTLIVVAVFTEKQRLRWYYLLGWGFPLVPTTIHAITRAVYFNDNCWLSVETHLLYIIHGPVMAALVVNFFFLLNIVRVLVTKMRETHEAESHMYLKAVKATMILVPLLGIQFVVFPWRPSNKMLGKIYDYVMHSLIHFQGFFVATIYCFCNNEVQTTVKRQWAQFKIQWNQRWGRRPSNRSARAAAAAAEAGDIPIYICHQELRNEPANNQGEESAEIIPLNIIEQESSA
T1 sequence (O60896 whole entry): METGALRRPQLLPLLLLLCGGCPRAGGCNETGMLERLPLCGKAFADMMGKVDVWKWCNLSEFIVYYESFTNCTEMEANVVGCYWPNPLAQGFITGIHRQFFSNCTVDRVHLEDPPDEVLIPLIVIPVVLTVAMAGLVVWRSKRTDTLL

[2] = target: T1, Amylin receptor AMY3; CALCR/RAMP3; assay: Agonist activity at human amylin receptor expressed in BHK570 cells co-expressing RAMP3 assessed as increase in intracellular cAMP concentration incubated for 3 hrs in absence of albumin by CRE luciferase reporter gene assay; format: functional, cell-based
[3] = Solubility in 100 mM glycylglycine buffer at pH 3.0 incubated for 18 hrs by UPLC analysis; format: physicochemical
[4] = Solubility in 100 mM bistrispropane buffer at pH 6.0 incubated for 18 hrs by UPLC analysis; format: physicochemical
[5] = Solubility in 100 mM bistrispropane buffer at pH 6.5 incubated for 18 hrs by UPLC analysis; format: physicochemical
[6] = Solubility in 100 mM bistrispropane buffer at pH 7.0 incubated for 18 hrs by UPLC analysis; format: physicochemical
[7] = Solubility in 100 mM bistrispropane buffer at pH 7.5 incubated for 18 hrs by UPLC analysis; format: physicochemical
[8] = Solubility in 100 mM bistrispropane buffer at pH 8.0 incubated for 18 hrs by UPLC analysis; format: physicochemical
Calcitonin receptor = target: T2, Calcitonin receptor (Homo sapiens, UniProt P30988); assay: Agonist activity at human calcitonin receptor expressed in BHK570 cells assessed as increase in intracellular cAMP concentration incubated for 3 hrs in absence of albumin by CRE luciferase reporter gene assay; format: functional, cell-based
T2 sequence (P30988 whole entry): T1 sequence (P30988 whole entry)

IC50 [1] [nM] | EC50 [2] [nM] | solubility at 18 h [3] [µM] | solubility at 18 h [4] [µM] | solubility at 18 h [5] [µM] | solubility at 18 h [6] [µM] | solubility at 18 h [7] [µM] | solubility at 18 h [8] [µM] | EC50 (Calcitonin receptor) [nM] | SMILES
294 | – | – | – | – | – | – | – | – | CC(C)C[C@H](NC(=O)[C@H](C)NC(=O)[C@H](C)NC(=O)[C@@H](NC(=O)[C@H](CO)NC(=O)[C@H](CC(C)C)NC(=O)[C@H](CCC(=O)O)NC(=O)[C@H](CO)NC(=O)[C@H](C)NC(=O)[C@@H](N)CCC(=O)O)[C@@H](C)O)C(=O)NCC(=O)N[C@@H](CCCNC(=N)N)C(=O)N[C@@H](CC(C)C)C(=O)N[C@@H](CO)C(=O)N[C@@H](C)C(=O)N[C@@H](CCC(=O)O)C(=O)N[C@@H](CC(C)C)C(=O)N[C@@H](Cc1cnc[nH]1)C(=O)N[C@@H](CCC(=O)O)C(=O)N[C@@H](CC(C)C)C(=O)N[C@@H](C)C(=O)N[C@H](C(=O)N[C@@H](CC(C)C)C(=O)N1CCC[C@H]1C(=O)N[C@@H](CCCNC(=N)N)C(=O)N[C@H](C(=O)N[C@@H](CCC(=O)O)C(=O)N[C@H](C(=O)NCC(=O)N1CCC[C@H]1C(=O)N[C@@H](CCC(=O)O)C(=O)N[C@@H](CO)C(=O)N1CCC[C@H]1C(=O)O)[C@@H](C)O)[C@@H](C)O)[C@@H](C)O (H-EASELSTAALGRLSAELHELATLPRTETGPESP-OH)
0.429 | 0.007 | ≥ 200 | ≥ 200 | ≥ 200 | ≥ 200 | ≥ 200 | ≥ 200 | – | CC[C@H](C)[C@H](NC(=O)[C@H](CCC(=O)O)NC(=O)[C@H](CO)NC(=O)[C@H](C)NC(=O)[C@H](CCC(=O)O)NC(=O)CCCCCCCCCCCCCCCCC(=O)O)C(=O)N[C@@H](CO)C(=O)N[C@H](C(=O)N[C@@H](C)C(=O)N[C@@H](C)C(=O)N[C@@H](CC(C)C)C(=O)NCC(=O)N[C@@H](CCCNC(=N)N)C(=O)N[C@@H](CC(C)C)C(=O)N[C@@H](CO)C(=O)N[C@@H](C)C(=O)N[C@@H](CCC(=O)O)C(=O)N[C@@H](CC(C)C)C(=O)N[C@@H](Cc1cnc[nH]1)C(=O)N[C@@H](CCC(=O)O)C(=O)N[C@@H](CC(C)C)C(=O)N[C@@H](C)C(=O)N[C@H](C(=O)N[C@@H](CC(C)C)C(=O)N1CCC[C@H]1C(=O)N[C@@H](CCCNC(=N)N)C(=O)N[C@H](C(=O)N[C@@H](CCC(=O)O)C(=O)N[C@H](C(=O)NCC(=O)N1CCC[C@H]1C(=O)N[C@@H](CCC(=O)O)C(=O)N[C@@H](CO)C(=O)N1CCC[C@H]1C(N)=O)[C@@H](C)O)[C@@H](C)O)[C@@H](C)O)[C@@H](C)O ({C18 diacid}-EASEISTAALGRLSAELHELATLPRTETGPESP-NH2)
0.998 | 0.01 | ≥ 200 | ≥ 200 | ≥ 200 | ≥ 200 | ≥ 200 | ≥ 200 | 0.006 | CC[C@H](C)[C@H](NC(=O)[C@H](C)NC(=O)[C@@H](NC(=O)[C@H](CO)NC(=O)[C@@H](NC(=O)[C@H](CCC(=O)O)NC(=O)[C@H](CO)NC(=O)[C@H](C)NC(=O)[C@H](CCC(=O)O)NC(=O)CCCCCCCCCCCCCCCCC(=O)O)[C@@H](C)CC)[C@@H](C)O)C(=O)N[C@H](C(=O)NCC(=O)N[C@@H](CCCNC(=N)N)C(=O)N[C@@H](CC(C)C)C(=O)N[C@@H](CO)C(=O)N[C@@H](C)C(=O)N[C@@H](CCC(=O)O)C(=O)N[C@@H](CC(C)C)C(=O)N[C@@H](Cc1cnc[nH]1)C(=O)N[C@@H](CCC(=O)O)C(=O)N[C@H](C(=O)N[C@@H](C)C(=O)N[C@H](C(=O)N[C@@H](CC(C)C)C(=O)N1CCC[C@H]1C(=O)N[C@@H](CCCNC(=N)N)C(=O)N[C@H](C(=O)N[C@@H](CCC(=O)O)C(=O)N[C@H](C(=O)NCC(=O)N1CCC[C@H]1C(=O)N[C@@H](CCC(=O)O)C(=O)N[C@@H](CO)C(=O)N1CCC[C@H]1C(N)=O)[C@@H](C)O)[C@@H](C)O)[C@@H](C)O)[C@@H](C)CC)[C@@H](C)CC ({C18 diacid}-EASEISTAIIGRLSAELHEIATLPRTETGPESP-NH2)
298 | 0.481 | – | – | – | – | – | – | 0.045 | CC(C)C[C@H](NC(=O)[C@H](C)NC(=O)[C@H](C)NC(=O)[C@@H](NC(=O)[C@H](CO)NC(=O)[C@H](CC(C)C)NC(=O)[C@H](CCC(=O)O)NC(=O)[C@H](CO)NC(=O)[C@H](C)NC(=O)[C@H](CCC(=O)O)NC(=O)CCCCCCCCCCCCCCCCC(=O)O)[C@@H](C)O)C(=O)NCC(=O)N[C@@H](CCCNC(=N)N)C(=O)N[C@@H](CC(C)C)C(=O)N[C@@H](CO)C(=O)N[C@@H](C)C(=O)N[C@@H](CCC(=O)O)C(=O)N[C@@H](CC(C)C)C(=O)N[C@@H](Cc1cnc[nH]1)C(=O)N[C@@H](CCC(=O)O)C(=O)N[C@@H](CC(C)C)C(=O)N[C@@H](C)C(=O)N[C@H](C(=O)N[C@@H](CC(C)C)C(=O)N1CCC[C@H]1C(=O)N[C@@H](CCCNC(=N)N)C(=O)N[C@H](C(=O)N[C@@H](CCC(=O)O)C(=O)N[C@H](C(=O)NCC(=O)N1CCC[C@H]1C(=O)N[C@@H](CCC(=O)O)C(=O)N[C@@H](CO)C(=O)N1CCC[C@H]1C(=O)O)[C@@H](C)O)[C@@H](C)O)[C@@H](C)O ({C18 diacid}-EASELSTAALGRLSAELHELATLPRTETGPESP-OH)
0.824 | 0.02 | ≥ 200 | ≥ 200 | ≥ 200 | ≥ 200 | ≥ 200 | ≥ 200 | 0.014 | CC(C)C[C@H](NC(=O)[C@H](CCC(=O)O)NC(=O)[C@H](Cc1cnc[nH]1)NC(=O)[C@H](CC(C)C)NC(=O)[C@H](CCC(=O)O)NC(=O)[C@H](C)NC(=O)[C@H](CO)NC(=O)[C@H](CC(C)C)NC(=O)[C@H](CCCNC(=N)N)NC(=O)CNC(=O)[C@H](CC(C)C)NC(=O)[C@@H](NC(=O)[C@H](C)NC(=O)[C@@H](NC(=O)[C@H](CO)NC(=O)[C@@H](NC(=O)[C@H](CCC(=O)O)NC(=O)[C@H](CO)NC(=O)[C@H](C)NC(=O)[C@H](CCC(=O)O)NC(=O)CCCCCCCCCCCCCCCCC(=O)O)C(C)C)[C@@H](C)O)C(C)C)C(=O)N[C@@H](C)C(=O)N[C@H](C(=O)N[C@@H](CC(C)C)C(=O)N1CCC[C@H]1C(=O)N[C@@H](CCCNC(=N)N)C(=O)N[C@H](C(=O)N[C@@H](CCC(=O)O)C(=O)N[C@H](C(=O)NCC(=O)N1CCC[C@H]1C(=O)N[C@@H](CCC(=O)O)C(=O)N[C@@H](CO)C(=O)N1CCC[C@H]1C(N)=O)[C@@H](C)O)[C@@H](C)O)[C@@H](C)O ({C18 diacid}-EASEVSTAVLGRLSAELHELATLPRTETGPESP-NH2)
92 | – | ≥ 200 | ≥ 200 | ≥ 200 | ≥ 200 | ≥ 200 | ≥ 200 | – | CC(C)C[C@H](NC(=O)[C@H](C)NC(=O)[C@H](C)NC(=O)[C@@H](NC(=O)[C@H](CO)NC(=O)[C@H](CC(C)C)NC(=O)[C@H](CCC(=O)O)NC(=O)[C@H](CO)NC(=O)[C@H](C)NC(=O)CC[C@H](NC(=O)CCCCCCCCCCCCCCCCCCC(=O)O)C(=O)O)[C@@H](C)O)C(=O)NCC(=O)N[C@@H](CCCNC(=N)N)C(=O)N[C@@H](CC(C)C)C(=O)N[C@@H](CO)C(=O)N[C@@H](C)C(=O)N[C@@H](CCC(=O)O)C(=O)N[C@@H](CC(C)C)C(=O)N[C@@H](Cc1cnc[nH]1)C(=O)N[C@@H](CCC(=O)O)C(=O)N[C@@H](CC(C)C)C(=O)N[C@@H](C)C(=O)N[C@H](C(=O)N[C@@H](Cc1ccc(O)cc1)C(=O)N1CCC[C@H]1C(=O)N[C@@H](CCCNC(=N)N)C(=O)N[C@H](C(=O)N[C@@H](CCC(=O)O)C(=O)N[C@H](C(=O)NCC(=O)N[C@@H](CO)C(=O)NCC(=O)N[C@@H](CO)C(=O)N[C@@H](Cc1ccc(O)cc1)C(=O)O)[C@@H](C)O)[C@@H](C)O)[C@@H](C)O ({C20 diacid-γGlu}-ASELSTAALGRLSAELHELATYPRTETGSGSY-OH)
